From ChEMBL document CHEMBL1150366, “Structural requirements of pyrido[2,3-d]pyrimidin-7-one as CDK4/D inhibitors: 2D autocorrelation, CoMFA and CoMSIA analyses” (Bioorg Med Chem, 2008)

Test: Binding affinity to CDK4/D

| SMILES | log(10'6/IC50) |
| --- | --- |
| CCn1c(=O)ccc2cnc(Nc3ccc(O)c(OC)c3)nc21 | 2.74 |
| CCn1c(=O)ccc2cnc(N(C)c3ccccc3)nc21 | 1.4 |
| CN1CCN(c2ccc(Nc3ncc4ccc(=O)n(C5CCCCC5)c4n3)cc2)CC1 | 5.4 |
| CCC(C)n1c(=O)ccc2cnc(Nc3ccccc3)nc21 (centres undefined) | 3.72 |
| CCn1c(=O)ccc2cnc(Nc3ccc(OC)c(OC)c3)nc21 | 2.39 |
| CCn1c(=O)ccc2cnc(Nc3ccc(N4CCN(C)CC4)cc3)nc21 | 4.07 |
| CCCn1c(=O)ccc2cnc(Nc3ccccc3)nc21 | 3.26 |
| CCN(CC)CCOc1ccc(Nc2ncc3ccc(=O)n([C@H]4C[C@H]5CC[C@H]4C5)c3n2)cc1 (relative stereo) | 3.35 |
| CCCCn1c(=O)ccc2cnc(Nc3ccccc3)nc21 | 2.83 |
| CCn1c(=O)ccc2cnc(Nc3cccc(OC(F)(F)C(F)F)c3)nc21 | 2.11 |
| CCN(CC)CCOc1ccc(Nc2ncc3ccc(=O)n(C4CCCCCC4)c3n2)cc1 | 5.4 |
| O=c1ccc2cnc(Nc3ccccc3)nc2n1C1CCCCCC1 | 3.74 |
| CCn1c(=O)ccc2cnc(Nc3ccc(-n4cccc4)cc3)nc21 | 2.56 |
| O=c1ccc2cnc(Nc3ccccc3)nc2n1C1CCCCC1 | 4.33 |
| CCn1c(=O)ccc2cnc(Nc3ccc(O)cc3)nc21 | 3.23 |
| CCn1c(=O)ccc2cnc(Nc3cccc(F)c3)nc21 | 2.85 |
| CCN(CC)CCOc1ccc(Nc2ncc3ccc(=O)n(C(C)C)c3n2)cc1 | 4.35 |
| CCn1c(=O)ccc2cnc(Nc3cccc(OC)c3)nc21 | 1.4 |
| CCN(CC)CCOc1ccc(Nc2ncc3ccc(=O)n(CC)c3n2)cc1 | 3.8 |
| CCn1c(=O)ccc2cnc(Nc3ccc(OCCOC)cc3)nc21 | 2.63 |
| CC(C)n1c(=O)ccc2cnc(Nc3ccccc3)nc21 | 3.84 |
| CN1CCN(c2ccc(Nc3ncc4ccc(=O)n(C5CC5)c4n3)cc2)CC1 | 3.85 |
| CCOCCn1c(=O)ccc2cnc(Nc3ccccc3)nc21 | 2.11 |
| CCn1c(=O)ccc2cnc(Nc3ccccc3)nc21 | 3.21 |
| CCn1c(=O)ccc2cnc(Nc3ccc(N4CCOCC4)cc3)nc21 | 3.52 |
| CCNc1ncc2ccc(=O)n(CC)c2n1 | 1.92 |
| COCn1c(=O)ccc2cnc(Nc3ccccc3)nc21 | 2.38 |

| SMILES | log(10'6/IC50) |
| --- | --- |
| COC(=O)Cn1c(=O)ccc2cnc(Nc3ccccc3)nc21 | 1.51 |
| CCN(CC)CCOc1ccc(Nc2ncc3ccc(=O)n(C4CCCC4)c3n2)cc1 | 6.15 |
| CN1CCN(c2ccc(Nc3ncc4ccc(=O)n([C@H]5C[C@H]6CC[C@H]5C6)c4n3)cc2)CC1 (relative stereo) | 5.22 |
| CC(C)Cn1c(=O)ccc2cnc(Nc3ccccc3)nc21 | 3.53 |
| CN1CCN(c2ccc(Nc3ncc4ccc(=O)n(CCOCc5ccccc5)c4n3)cc2)CC1 | 2.68 |
| O=c1ccc2cnc(Nc3ccccc3)nc2n1C1CCCC1 | 3.68 |
| CCn1c(=O)ccc2cnc(NC3CCCCC3)nc21 | 2.48 |
| CC(C)CCn1c(=O)ccc2cnc(Nc3ccc(N4CCN(C)CC4)cc3)nc21 | 4.89 |
| O=c1ccc2cnc(Nc3ccccc3)nc2n1[C@H]1C[C@H]2CC[C@H]1C2 (relative stereo) | 4.42 |
| CN1CCN(c2ccc(Nc3ncc4ccc(=O)n(-c5ccccc5)c4n3)cc2)CC1 | 3.76 |
| CCn1c(=O)ccc2cnc(Nc3ccc(F)cc3)nc21 | 2.91 |
| O=c1ccc2cnc(Nc3ccccc3)nc2n1-c1ccccc1 | 2.78 |
| O=c1ccc2cnc(Nc3ccccc3)nc2n1CC1CO1 (centres undefined) | 2.3 |
| CC(C)CCn1c(=O)ccc2cnc(Nc3ccccc3)nc21 | 3.8 |
| CCn1c(=O)ccc2cnc(NC(C)C)nc21 | 2.36 |
| CN1CCN(c2ccc(Nc3ncc4ccc(=O)n(C5CCCC5)c4n3)cc2)CC1 | 5.05 |
| CCn1c(=O)ccc2cnc(Nc3ccc(OC)cc3)nc21 | 3.22 |
| CCN(CC)CCOc1ccc(Nc2ncc3ccc(=O)n(C4CCCCC4)c3n2)cc1 | 4.96 |
| CN1CCN(c2ccc(Nc3ncc4ccc(=O)n(CC(O)CO)c4n3)cc2)CC1 (centres undefined) | 2.78 |
| Cn1c(=O)ccc2cnc(Nc3ccccc3)nc21 | 2.26 |
| COCCn1c(=O)ccc2cnc(Nc3ccccc3)nc21 | 2.54 |
| O=c1ccc2cnc(Nc3ccccc3)nc2n1CC1CCCCC1 | 1.87 |
| CCn1c(=O)ccc2cnc(Nc3ccncc3)nc21 | 2.93 |
| CCn1c(=O)ccc2cnc(NC(C)(C)C)nc21 | 2.28 |
| CCn1c(=O)ccc2cnc(NCc3ccccc3)nc21 | 1.4 |
| CC(C)n1c(=O)ccc2cnc(Nc3ccc(N4CCN(C)CC4)cc3)nc21 | 4.49 |
| O=c1ccc2cnc(Nc3ccccc3)nc2n1Cc1ccccc1 | 3.03 |
